In patent US20110092469A1, “Quinone derivative 2,3-dimethoxy-5-methyl-6-(10-hydroxydecyl)-1,4-benzoquinone for the treatment of respiratory illness in muscular dystrophy” (SANTHERA PHARMACEUTICALS (SCHWEIZ) AG, priority 2008, published 2011):

Tested on: Duchenne Muscular Dystrophy (DMD) patients
Experiment: Double-blind, placebo-controlled, randomised clinical trial: pulmonary function testing in DMD patients
Assay type: in vivo, human
Experimental: Efficacy of idebenone on respiratory parameters in Duchenne Muscular Dystrophy (DMD) patients was assessed in a double-blind, placebo-controlled, randomised parallel group, clinical trial conducted in one singe clinical center. DMD patients at age 8 to 16 years were treated with idebenone or placebo over a period of 52 weeks. After written informed consent was obtained from the patient and the patient's parent/legal guardian, patients who met the protocol eligibility criteria were enrolled at the study centre and randomised to daily treatment of idebenone (150 mg, 3× daily; total daily dose of 450 mg) or placebo (3× daily). Efficacy was assessed at baseline and at weeks 26 and 52.
A total of 21 patients were enrolled, 13 patients were randomised to treatment with idebenone and 8 randomised to treatment with placebo.
Idebenone was formulated as a round biconvex shaped, film-coated orange tablet, with a 10 mm diameter, containing 150 mg of idebenone and Lactose Monohydrate, Microcrystalline Cellulose, Croscarmellose Sodium, Povidone (Plasdone® K25), Magnesium Stearate and Silicon Dioxide as excipients. The tablet is manufactured by a wet granulation process performed with a high-shear granulator, followed by compression on a rotary tabletting machine and film-coating of the cores in a perforated pan coater. The composition of the placebo is based on the composition of the 150 mg film-coated tablet. The drug substance and the excipients have been replaced by a mixture of lactose monohydrate and microcrystalline cellulose. The composition of the coating remained constant. Placebo tablets are manufactured by direct compression, followed by film-coating.
Both idebenone (150 mg) and matching placebo were administered as an oral tablet. Patients were to take 1 tablet, 3 times a day with meals, for 12 months (52 weeks).
Pulmonary function testing was performed by one clinical evaluator (physical therapist) with longstanding expertise in the assessment of children with neuromuscular diseases, using state of the art equipment and methods. Testing was done with the patient sitting, with a standardized order of testing. Lung volumes (FVC, FEV1) were measured using a handheld Koko spirometer (PDS Instrumentation, Louisville, USA).
Maximum inspiratory (MIP) and expiratory (MEP) pressures were measured using a Magnehelic® manometer (Dwyer Instrument, Michigan City Ind., USA) connected to a mouthpiece. Peak expiratory flow (PEF) measurements were performed using a portable peak flow meter (Mini-Wright peak flow meter, Clement Clarke International). For all parameters the highest values from three consecutive recordings were used in compliance with criteria published by the American Thoracic Society (ATS) (American Thoracic Society. Am J Respir Crit Care Med 1994; 152:1107-1136).
Pulmonary function testing included the following parameters: • Forced vital capacity (FVC) [L] • Forced vital capacity % predicted • Forced expiratory volume in 1 second (FEV1) [L] • FEV1 (% predicted) • Peak expiratory flow (PEF) [L/min] • Peak expiratory flow (% predicted) • Maximal Inspiratory Pressure (MIP) [cmH2O] • Maximal Inspiratory Pressure (% predicted)
For peak expiratory flow conversion from measured values (in Liter) to ‘% predicted’ was performed by the following equation: […]
“peak expiratory flow−422.8+5.288×height”[height in cm]
For maximal inspiratory pressure (MIP) conversion from measured values (in cm H2O) to ‘% predicted’ was performed by the following equation: […]
“MIP−27.020−(4.132×age)−(0.003×height×weight)”[age: years; height: cm body height; weight: kg]
Efficacy of idebenone was determined for the parameters listed above as changes between baseline and end of treatment (at week 52) and comparisons were made between idebenone treated and placebo treated subjects.

[1] = DMD patients, idebenone 450 mg/day oral, N = 13, week 52, mean ± SD

COC1=C(OC)C(=O)C(CCCCCCCCCCO)=C(C)C1=O [Idebenone, 2,3-dimethoxy-5-methyl-6-(10-hydroxydecyl)-1,4-benzoquinone]
FVC (forced vital capacity), Week 52 (DMD patients 8-16 years, idebenone 150 mg 3x daily oral, N = 13, week 52 (end of treatment), mean ± SD): 2.33 ± 0.67 L | MIP expressed as percent of the predicted value, increase over 52 weeks (DMD patients on idebenone, 52 week treatment period): 4.8±13.0% | Peak expiratory flow at week 52 compared to baseline (in words) (DMD patients on idebenone, difference in change vs placebo statistically significant): higher at week 52 compared to baseline | Maximum inspiratory pressure (MIP) over the 52 week treatment period (in words) (DMD patients on idebenone, expressed as more negative number, change clearly different from placebo): increased | MIP, Change Week 52-BL (DMD patients, idebenone 450 mg/day oral, N = 13, change baseline to week 52, mean ± SD, more negative = larger inspiratory force, p 0.173 vs placebo (one-sided)): −7.33 ± 13.0 cmH2O | Peak expiratory flow, Change Week 52-BL (DMD patients, idebenone 450 mg/day oral, N = 13, change baseline to week 52, mean ± SD, p 0.039 vs placebo (one-sided)): 30.8 ± 54.4 L/min | Peak expiratory flow % predicted, Change Week 52-BL (DMD patients, idebenone 450 mg/day oral, N = 13, change baseline to week 52, mean ± SD, p 0.042 vs placebo (one-sided)): 2.8 ± 13.8 % predicted | MIP % predicted, Change Week 52-BL (DMD patients, idebenone 450 mg/day oral, N = 13, change baseline to week 52, mean ± SD, p 0.142 vs placebo (one-sided)): 4.8 ± 13.0 % predicted | FVC, Change Week 52-BL (DMD patients, idebenone 450 mg/day oral, N = 13, change baseline to week 52, mean ± SD, p 0.471 vs placebo (one-sided)): 0.14 ± 0.31 L | FEV1, Change Week 52-BL (DMD patients, idebenone 450 mg/day oral, N = 13, change baseline to week 52, mean ± SD, p 0.484 vs placebo (one-sided)): 0.11 ± 0.37 L | FEV1 % predicted, Change Week 52-BL (DMD patients, idebenone 450 mg/day oral, N = 13, change baseline to week 52, mean ± SD, p 0.651 vs placebo (one-sided)): −2.0 ± 9.2 % predicted | FVC % predicted, Change Week 52-BL (DMD patients, idebenone 450 mg/day oral, N = 13, change baseline to week 52, mean ± SD, p 0.793 vs placebo (one-sided)): −1.2 ± 6.4 % predicted | FEV1 % predicted, Week 52 [1]: 74.5 ± 23.88 % predicted | FEV1 (forced expiratory volume 1 second), Week 52 [1]: 2.08 ± 0.71 L | FVC % predicted, Week 52 [1]: 75.3 ± 24.79 % predicted | MIP % predicted, Week 52 [1]: 44.1 ± 13.38 % predicted | MIP (maximal inspiratory pressure), Week 52 [1]: −47.3 ± 14.09 cmH2O | Peak expiratory flow % predicted, Week 52 [1]: 76.9 ± 20.13 % predicted | Peak expiratory flow, Week 52 [1]: 292.3 ± 90.6 L/min | Changes in FVC, FVC % predicted, FEV1 and FEV1 % predicted versus placebo (in words) (DMD patients, idebenone treatment 52 weeks): not different from placebo treatment
